Measurements published in US10112941B2, “Tricyclic compounds as anticancer agents” (BRISTOL-MYERS SQUIBB COMPANY, priority 2013, dated 2018).

Each compound was assayed against BRD4 (Homo sapiens, UniProt O60885) (assay: Time Resolved Fluorescence Resonance Energy Transfer (TR-FRET) binding assay, BRD4). Conditions: one of the FRET assays described; read-out: FRET BRD4 IC50.

COc1ccc(S(C)(=O)=O)c2c1c1ncc(-c3c(C)noc3C)cc1n2[C@H](c1ccccc1)C1CCOCC1 [Example 185, 4-{6-Methanesulfonyl-9-methoxy-5-[(S)-oxan-4-yl(phenyl)methyl]-5H-pyrido[3,2-b]indol-3-yl}-3,5-dimethyl-1,2-oxazole] and COc1ccc(S(C)(=O)=O)c2c1c1ncc(-c3c(C)noc3C)cc1n2[C@H](c1ccc(F)cc1)C1CCOCC1 [Example 187, 4-{5-[(S)-(4-Fluorophenyl)(oxan-4-yl)methyl]-6-methanesulfonyl-9-methoxy-5H-pyrido[3,2-b]indol-3-yl}-3,5-dimethyl-1,2-oxazole] cannot be ordered by IC50: < 5 nM for the first, < 5 nM for the second.

Cc1noc(C)c1-c1cnc2c3ccc(C(C)(C)O)cc3n(C(c3ccccc3F)C3CCOCC3)c2c1 (single isomer, unassigned) [Example 149, 2-[3-(Dimethyl-1,2-oxazol-4-yl)-5-[(2-fluorophenyl)(oxan-4-yl)methyl]-5H-pyrido[3,2-b]indol-7-yl]propan-2-ol] and Cc1noc(C)c1-c1cnc2c3ccc(C(C)(C)O)cc3n(C(c3cc(F)ccc3F)C3CCOCC3)c2c1 (single isomer, unassigned) [Example 139, 2-{5-[(2,5-Difluorophenyl)(oxan-4-yl)methyl]-3-(dimethyl-1,2-oxazol-4-yl)-5H-pyrido[3,2-b]indol-7-yl}propan-2-ol] cannot be ordered by IC50: < 5 nM for the first, < 5 nM for the second.

Cc1nnn(C)c1-c1cnc2c3ccc(C(C)(C)F)c(F)c3n([C@H](c3ccccc3)C3CCOCC3)c2c1 [Example 352, 5-[6-Fluoro-7-(2-fluoropropan-2-yl)-5-[(S)-oxan-4-yl(phenyl)methyl]-5H-pyrido[3,2-b]indol-3-yl]-1,4-dimethyl-1H-1,2,3-triazole] and Cc1nnn(C)c1-c1cnc2c3ccc(C(C)(C)N)c(F)c3n([C@H](c3ccccc3)C3CCOCC3)c2c1 [Example 461, 2-[3-(Dimethyl-1H-1,2,3-triazol-5-yl)-6-fluoro-5-[(S)-oxan-4-yl(phenyl)methyl]-5H-pyrido[3,2-b]indol-7-yl]propan-2-amine] cannot be ordered by IC50: < 25 nM for the first, < 5 nM for the second.

Cn1nnc(C2CC2)c1-c1cnc2c3ccc(C(C)(C)O)cc3n([C@H](c3ccccc3)C3CCOCC3)c2c1 [Example 385, 2-[3-(4-Cyclopropyl-1-methyl-1H-1,2,3-triazol-5-yl)-5-[(S)-oxan-4-yl(phenyl)methyl]-5H-pyrido[3,2-b]indol-7-yl]propan-2-ol] and Cc1nnn(C)c1-c1cnc2c3ccc(C(C)(C)O)cc3n([C@H](c3ccccc3)C3CCOCC3)c2c1 (single isomer, unassigned) [Example 54] cannot be ordered by IC50: < 5 nM for the first, < 5 nM for the second.

[2H]C([2H])([2H])c1nnn(C)c1-c1cnc2c3c(NS(=O)(=O)C4CC4)ccc(S(C)(=O)=O)c3n([C@H](c3ccccc3)C3CCOCC3)c2c1 [Example 222, N-{6-Methanesulfonyl-3-[4-(^2H3)methyl-1-methyl-1H-1,2,3-triazol-5-yl]-5-[(S)-oxan-4-yl(phenyl)methyl]-5H-pyrido[3,2-b]indol-9-yl}cyclopropanesulfonamide] and Cc1nnn(C)c1-c1cnc2c3ccc(C(C)(O)C4CC4)c(F)c3n([C@H](c3ccccc3)C3CCOCC3)c2c1 (stereo partly drawn) [Example 415, 1-Cyclopropyl-1-{6-fluoro-3-[4-(^2H3)methyl-1-methyl-1H-1,2,3-triazol-5-yl]-5-[(S)-oxan-4-yl(phenyl)methyl]-5H-pyrido[3,2-b]indol-7-yl}ethan-1-ol] cannot be ordered by IC50: < 5 nM for the first, < 5 nM for the second.

Cn1nncc1-c1cnc2c3ccc(S(C)(=O)=O)cc3n([C@H](c3ccccc3)C3CCOCC3)c2c1 [Example 453, 5-{7-Methanesulfonyl-5-[(S)-oxan-4-yl(phenyl)methyl]-5H-pyrido[3,2-b]indol-3-yl}-1-methyl-1H-1,2,3-triazole] and Cn1nnc(CO)c1-c1cnc2c3ccc(S(C)(=O)=O)cc3n([C@H](c3ccccc3)C3CCOCC3)c2c1 [Example 179, (5-{7-Methanesulfonyl-5-[(S)-oxan-4-yl(phenyl)methyl]-5H-pyrido[3,2-b]indol-3-yl}-1-methyl-1H-1,2,3-triazol-4-yl)methanol] cannot be ordered by IC50: < 5 nM for the first, < 5 nM for the second.

COc1ccc(C(C2CCOCC2)n2c3cc(C(C)(C)O)ccc3c3ncc(-c4c(C)nnn4C)cc32)cc1 (single isomer, unassigned) [Example 250, 2-[3-(Dimethyl-1H-1,2,3-triazol-5-yl)-5-[(4-methoxyphenyl)(oxan-4-yl)methyl]-5H-pyrido[3,2-b]indol-7-yl]propan-2-ol] and Cc1nnn(C)c1-c1cnc2c3cc(C(C)(C)O)ccc3n([C@H](c3ccc(F)cc3)C3CCOCC3)c2c1 [Example 176, 2-[3-(Dimethyl-1H-1,2,3-triazol-5-yl)-5-[(S)-(4-fluorophenyl)(oxan-4-yl)methyl]-5H-pyrido[3,2-b]indol-8-yl]propan-2-ol] cannot be ordered by IC50: < 25 nM for the first, < 5 nM for the second.

C=C(C)c1ccc2c3ncc(-c4c(C)nnn4C)cc3n([C@H](c3ccccc3)C3CCOCC3)c2c1 [Example 420, 1,4-Dimethyl-5-{5-[(S)-oxan-4-yl(phenyl)methyl]-7-(prop-1-en-2-yl)-5H-pyrido[3,2-b]indol-3-yl}-1H-1,2,3-triazole] and Cc1nnn(C)c1-c1cnc2c3ccc(C(C)(O)C4CC4)cc3n([C@H](c3ccccc3)C3CCOCC3)c2c1 (single isomer, unassigned) [Example 422] cannot be ordered by IC50: < 5 nM for the first, < 5 nM for the second.

Cc1cccnc1C(C1CCOCC1)n1c2cc(C(C)(C)O)ccc2c2ncc(-c3c(C)nnn3C)cc21 (single isomer, unassigned) [Example 301] and Cc1nnn(C)c1-c1cnc2c3ccc(C(C)(C)O)cc3n(C(c3ncccc3F)C3CCOCC3)c2c1 (single isomer, unassigned) [Example 294] cannot be ordered by IC50: < 5 nM for the first, < 5 nM for the second.

Cc1noc(C)c1-c1cnc2c3ccc(C(C)(C)O)cc3n(C(c3c(F)cccc3F)C3CCOCC3)c2c1 (single isomer, unassigned) [Example 143, 2-{5-[(2,6-Difluorophenyl)(oxan-4-yl)methyl]-3-(dimethyl-1,2-oxazol-4-yl)-5H-pyrido[3,2-b]indol-7-yl}propan-2-ol] and Cc1noc(C)c1-c1cnc2c3ccc(C(C)(C)O)cc3n(C(c3ccccc3)C3CCOCC3)c2c1 (single isomer, unassigned) [Example 1, 2-[3-(Dimethyl-1,2-oxazol-4-yl)-5-[oxan-4-yl(phenyl)methyl]-5H-pyrido[3,2-b]indol-7-yl]propan-2-ol] cannot be ordered by IC50: < 5 nM for the first, < 5 nM for the second.

[2H]C([2H])([2H])c1nnn(C)c1-c1cnc2c3ccc(C(C)(C)O)c(F)c3n(C(c3ccc(F)cc3F)C3CCOCC3)c2c1 (stereo not drawn) [Example 283, 2-{5-[(2,4-Difluorophenyl)(oxan-4-yl)methyl]-6-fluoro-3-[4-(^2H3)methyl-1-methyl-1H-1,2,3-triazol-5-yl]-5H-pyrido[3,2-b]indol-7-yl}propan-2-ol] and [2H]C([2H])([2H])c1nnn(C)c1-c1cnc2c3ccc(C(C)(C)O)c(F)c3n([C@H](c3ccc(F)cc3)C3CCOCC3)c2c1 [Example 271, 2-{6-Fluoro-5-[(S)-(4-fluorophenyl)(oxan-4-yl)methyl]-3-[4-(^2H3)methyl-1-methyl-1H-1,2,3-triazol-5-yl]-5H-pyrido[3,2-b]indol-7-yl}propan-2-ol] cannot be ordered by IC50: < 5 nM for the first, < 5 nM for the second.

[2H]c1c(C([2H])(C2CCOCC2)n2c3cc(C(C)(C)O)ccc3c3ncc(-c4c(C)noc4C([2H])([2H])[2H])cc32)noc1C([2H])([2H])[2H] (stereo not drawn) [Example 328] and [2H][C@@](c1ccccc1)(C1CCOCC1)n1c2cc(C(C)(C)O)ccc2c2ncc(-c3c(C)nnn3C)cc21 [Example 90, 2-[3-(Dimethyl-1H-1,2,3-triazol-5-yl)-5-[(S)-oxan-4-yl(phenyl)(^2H)methyl]-5H-pyrido[3,2-b]indol-7-yl]propan-2-ol] cannot be ordered by IC50: < 25 nM for the first, < 5 nM for the second.

Cc1noc(C)c1-c1cnc2c3ccc(S(C)(=O)=O)cc3n([C@H](c3ccc(F)cc3)C3CCOCC3)c2c1 [Example 172, 4-{5-[(S)-(4-Fluorophenyl)(oxan-4-yl)methyl]-7-methanesulfonyl-5H-pyrido[3,2-b]indol-3-yl}-3,5-dimethyl-1,2-oxazole] and Cc1nnn(C)c1-c1cnc2c3ccc(C(C)(C)O)cc3n(C(c3cccc(F)c3)C3CCOCC3)c2c1 (single isomer, unassigned) [Example 100, 2-[3-(Dimethyl-1H-1,2,3-triazol-5-yl)-5-[(3-fluorophenyl)(oxan-4-yl)methyl]-5H-pyrido[3,2-b]indol-7-yl]propan-2-ol] cannot be ordered by IC50: < 5 nM for the first, < 5 nM for the second.

Cc1nnn(C)c1-c1cnc2c3ccc(C(C)(C)O)cc3n([C@@H](c3ccccn3)C3CCOCC3)c2c1 [Example 63] and Cc1nnn(C)c1-c1cnc2c3c(F)cc(C(C)(C)O)cc3n(C(c3cccc(F)c3)C3CCOCC3)c2c1 (single isomer, unassigned) [Example 113, 2-[3-(Dimethyl-1H-1,2,3-triazol-5-yl)-9-fluoro-5-[(3-fluorophenyl)(oxan-4-yl)methyl]-5H-pyrido[3,2-b]indol-7-yl]propan-2-ol] cannot be ordered by IC50: < 25 nM for the first, < 1500 nM for the second.

Cc1cc(C(C2CCOCC2)n2c3cc(-c4c(C)nnn4C)cnc3c3ccc(C(C)(C)O)c(F)c32)no1 (single isomer, unassigned) [Example 290] and Cc1nnn(C)c1-c1cnc2c3ccc(C(O)(C4CC4)C4CC4)cc3n([C@H](c3ccccc3)C3CCOCC3)c2c1 [Example 408, Dicyclopropyl[3-(dimethyl-1H-1,2,3-triazol-5-yl)-5-[(S)-oxan-4-yl(phenyl)methyl]-5H-pyrido[3,2-b]indol-7-yl]methanol] cannot be ordered by IC50: < 5 nM for the first, < 5 nM for the second.

Cc1sc(=O)n(C)c1-c1cnc2c3ccc(C(C)(C)O)cc3n(C(c3ccccc3)C3CCOCC3)c2c1 (single isomer, unassigned) [Example 169, 4-[7-(2-Hydroxypropan-2-yl)-5-[oxan-4-yl(phenyl)methyl]-5H-pyrido[3,2-b]indol-3-yl]-3,5-dimethyl-2,3-dihydro-1,3-thiazol-2-one] and Cc1noc(C)c1-c1cnc2c3ccc(C(C)(C)O)cc3n([C@H](CCC(F)(F)F)c3ccccc3Cl)c2c1 [Example 87] cannot be ordered by IC50: < 5 nM for the first, < 1500 nM for the second.

For Cc1sc(=O)n(C)c1-c1cnc2c3ccc(C(C)(C)O)cc3n(C(c3ccccc3)C3CCOCC3)c2c1 (single isomer, unassigned) [Example 170, 4-[7-(2-Hydroxypropan-2-yl)-5-[oxan-4-yl(phenyl)methyl]-5H-pyrido[3,2-b]indol-3-yl]-3,5-dimethyl-2,3-dihydro-1,3-thiazol-2-one], the IC50 was < 1500 nM.
